PMC8597046, “Use of Mixture Dosing and Nonlinear Mixed Effect Modeling of Eight Environmental Contaminants in Rabbits to Improve Extrapolation Value of Toxicokinetic Data” (Environmental Health Perspectives, 2021)

How the values were obtained:
[1] = TK assay, oral mixture dosing: serum concentrations and noncompartmental analysis (sparse data); conditions: female, rabbit, in vivo, po; for concentration at 24 h / concentration at 23.98 h / concentration at 168 h / concentration at 0.57 h / concentration at 672.02 h / concentration at 0.55 h / concentration at 671.96 h / concentration at 72 h / concentration at 71.96 h / concentration at 168.02 h: Serum concentration; for concentration at 24 h / concentration at 23.98 h / concentration at 72 h / concentration at 71.96 h: oral, MEHP after oral DEHP; for concentration at 23.98 h: rabbit 15, 23.98 h; for concentration at 0.57 h: rabbit 22, 0.57 h; for concentration at 671.96 h: rabbit 23, 671.96 h; for concentration at 71.96 h: rabbit 18, 71.96 h; for concentration at 168.02 h: rabbit 19, 168.02 h
In short: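 Female New Zealand white rabbits (10-wk, 2.37±0.14kg) got the compound mixture IV via ear-vein catheter or orally into the mouth; serum sampled 15 min to 28 d, 3 (or 6 at 30 min) rabbits per time. Sparse-data noncompartmental analysis gave AUC (linear trapezoidal), CL or CL_F, half-life and F.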

[2] = rodents; ref Staskal et al. 2005; cited from earlier work
[3] = Chronic exposure: daily oral mixture for 17 wk, steady-state serum concentrations; conditions: female, New Zealand white (INRA 1777 line), rabbit, in vivo, po
In short: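 Female New Zealand white rabbits (INRA 1777 line, 2 wk old, n=16 treated, 16 vehicle controls) received an oral eight-compound mixture: loading plus maintenance dose, then daily maintenance dose for 17 wk. Dosing volume 1mL/kg adjusted weekly to predicted BW; serum obtained after clotting and centrifugation, stored at −20°C.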

[4] = TK assay, intravenous mixture dosing: serum concentrations and noncompartmental analysis (sparse data); conditions: female, rabbit, in vivo, iv; for AUC(0-inf) / Cmax / MRT / clearance / half-life / Vd: New Zealand white (INRA 1777 line); for Vd: IV mixture dosing, NCA, n=12; for concentration at 24.03 h / concentration at 24 h / concentration at 72 h / concentration at 72.03 h / concentration at 71.97 h / concentration at 168 h / concentration at 167.92 h / concentration at 0.67 h / concentration at 671.96 h / concentration at 0.77 h / concentration at 672 h / concentration at 0.6 h / concentration at 671.83 h: New Zealand white, Serum concentration; for concentration at 24.03 h: rabbit 1, 24.03 h; for concentration at 72 h: rabbit 4, 72.00 h; for concentration at 72.03 h: rabbit 5, 72.03 h; for concentration at 71.97 h: rabbit 6, 71.97 h; for concentration at 167.92 h: rabbit 8, 167.92 h; for concentration at 0.67 h: rabbit 10, 0.67 h; for concentration at 671.96 h: rabbit 10, 671.96 h; for concentration at 0.77 h: rabbit 11, 0.77 h; for concentration at 672 h: rabbit 11, 672.00 h; for concentration at 0.6 h: rabbit 12, 0.60 h; for concentration at 671.83 h: rabbit 12, 671.83 h
In short: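 Female New Zealand white rabbits received a compound mixture IV via ear-vein catheter; serum sampled sparsely (3 rabbits/time point) from 15 min to 28 d. Noncompartmental sparse-data analysis on mean profiles: linear-trapezoidal AUC, CL as dose/AUC0−inf, half-life from λZ, MRT and VSS.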

[5] = New Zealand white (INRA 1777 line)
[6] = New Zealand white (INRA 1777 line), rabbit 13, […]
[7] = New Zealand white (INRA 1777 line), rabbit 14, […]
[8] = New Zealand white (INRA 1777 line), rabbit 21, 168.00 h
[9] = New Zealand white (INRA 1777 line), rabbit 22, 672.02 h
[10] = New Zealand white (INRA 1777 line), rabbit 23, 0.55 h
[11] = New Zealand white (INRA 1777 line), rabbit 24, 0.55 h
[12] = New Zealand white (INRA 1777 line), rabbit 24, 672.02 h
[13] = New Zealand white, rabbit 16, 72.00 h
[14] = New Zealand white, rabbit 17, 72.00 h
[15] = New Zealand white, rabbit 20, 168.00 h

Compound: Brc1ccc(Oc2ccc(Br)cc2Br)c(Br)c1 [BDE-47, 2,2′,4,4′-tetrabromodiphenyl ether]
- AUC(0-inf) [1, 5]: 79.5 µM·h
- CL/F [1, 5]: 5 mL/min/kg
- Cmax [1, 5]: 640 nM
- MRT [1, 5]: 10.8 days
- Tmax [1, 5]: 1 days
- Vd/F [1, 5]: 116 L/kg
- bioavailability [1, 5]: 78%
- half-life [1, 5]: 11.1 days
- concentration at 24 h [1, 6]: 770 nM
- concentration at 24 h [1, 7]: 510 nM
- concentration at 23.98 h [1, 5]: 300 nM
- concentration at 168 h [1, 8]: 110 nM
- concentration at 0.57 h [1, 5]: 12 nM
- concentration at 672.02 h [1, 9]: 17 nM
- concentration at 0.55 h [1, 10]: 33 nM
- concentration at 671.96 h [1, 5]: 27 nM
- concentration at 0.55 h [1, 11]: 110 nM
- concentration at 672.02 h [1, 12]: 30 nM
- concentration at 72 h [1, 13]: 160 nM
- concentration at 72 h [1, 14]: 210 nM
- concentration at 71.96 h ([1]; New Zealand white): 300 nM
- concentration at 168.02 h ([1]; New Zealand white): 92 nM
- concentration at 168 h [1, 15]: 120 nM
- Intestinal absorption [2]: 82%
- concentration at 17 wk [3]: 0.16 ± 0.058 ng/mL
- AUC(0-inf) [4]: 42.2 µM·h
- Cmax [4]: 1820 nM
- MRT [4]: 3.62 days
- clearance [4]: 3.83 mL/min/kg
- half-life [4]: 6.75 days
- Vd ([4]; VSS): 20.3 L/kg
- Vd ([4]; VZ): 54.8 L/kg
- concentration at 24.03 h [4]: 120 nM
- concentration at 24 h ([4]; rabbit 2, […]): 140 nM
- concentration at 24 h ([4]; rabbit 3, […]): 130 nM
- concentration at 72 h [4]: 56 nM
- concentration at 72.03 h [4]: 63 nM
- concentration at 71.97 h [4]: 42 nM
- concentration at 168 h ([4]; rabbit 7, 168.00 h): 31 nM
- concentration at 167.92 h [4]: 25 nM
- concentration at 168 h ([4]; rabbit 9, 168.00 h): 37 nM
- concentration at 0.67 h [4]: 1990 nM
- concentration at 671.96 h [4]: 3.9 nM
- concentration at 0.77 h [4]: 1770 nM
- concentration at 672 h [4]: 5.3 nM
- concentration at 0.6 h [4]: 1820 nM
- concentration at 671.83 h [4]: 2.8 nM

Compound: Cl[C@H]1[C@H](Cl)[C@@H](Cl)[C@H](Cl)[C@@H](Cl)[C@@H]1Cl [β-HCH, β-hexachlorocyclohexane]
- AUC(0-inf) [1, 5]: 67.1 µM·h
- CL/F [1, 5]: 1.73 mL/min/kg
- Cmax [1, 5]: 297 nM
- MRT [1, 5]: 15.4 days
- Tmax [1, 5]: 1 days
- Vd/F [1, 5]: 47 L/kg
- bioavailability [1, 5]: 55%
- half-life [1, 5]: 13.1 days
- concentration at 24 h [1, 6]: 390 nM
- concentration at 24 h [1, 7]: 200 nM
- concentration at 23.98 h [1, 5]: 190 nM
- concentration at 168 h [1, 8]: 99 nM
- concentration at 0.57 h [1, 5]: 29 nM
- concentration at 672.02 h [1, 9]: 13 nM
- concentration at 0.55 h [1, 10]: 73 nM
- concentration at 671.96 h [1, 5]: 30 nM
- concentration at 0.55 h [1, 11]: 250 nM
- concentration at 672.02 h [1, 12]: 43 nM
- concentration at 72 h [1, 13]: 94 nM
- concentration at 72 h [1, 14]: 160 nM
- concentration at 71.96 h ([1]; New Zealand white): 180 nM
- concentration at 168.02 h ([1]; New Zealand white): 88 nM
- concentration at 168 h [1, 15]: 89 nM
- concentration at 17 wk [3]: 4.3 ± 1.6 ng/mL
- AUC(0-inf) [4]: 26.7 µM·h
- Cmax [4]: 320 nM
- MRT [4]: 22.6 days
- clearance [4]: 0.95 mL/min/kg
- half-life [4]: 13.8 days
- Vd ([4]; VSS): 30.9 L/kg
- Vd ([4]; VZ): 27.1 L/kg
- concentration at 24.03 h [4]: 62 nM
- concentration at 24 h ([4]; rabbit 2, […]): 50 nM
- concentration at 24 h ([4]; rabbit 3, […]): 76 nM
- concentration at 72 h [4]: 36 nM
- concentration at 72.03 h [4]: 34 nM
- concentration at 71.97 h [4]: 29 nM
- concentration at 168 h ([4]; rabbit 7, 168.00 h): 20 nM
- concentration at 167.92 h [4]: 18 nM
- concentration at 168 h ([4]; rabbit 9, 168.00 h): 25 nM
- concentration at 0.67 h [4]: 320 nM
- concentration at 671.96 h [4]: 6.5 nM
- concentration at 0.77 h [4]: 250 nM
- concentration at 672 h [4]: 21 nM
- concentration at 0.6 h [4]: 270 nM
- concentration at 671.83 h [4]: 9.6 nM
